Test results as given in publication PMC8003416, “Modulation of Human Phenylalanine Hydroxylase by 3-Hydroxyquinolin-2(1H)-One Derivatives” (Biomolecules, 2021).

T1: human phenylalanine hydroxylase (hPAH) (Homo sapiens, UniProt P00439)
T1 construct: Recombinant full-length wild-type (WT) hPAH was expressed in E. coli Top10 cells in fusion with a hexa-histidyl peptide; made in house; host or cells: E. coli Top10
T1 sequence (P00439 1-452): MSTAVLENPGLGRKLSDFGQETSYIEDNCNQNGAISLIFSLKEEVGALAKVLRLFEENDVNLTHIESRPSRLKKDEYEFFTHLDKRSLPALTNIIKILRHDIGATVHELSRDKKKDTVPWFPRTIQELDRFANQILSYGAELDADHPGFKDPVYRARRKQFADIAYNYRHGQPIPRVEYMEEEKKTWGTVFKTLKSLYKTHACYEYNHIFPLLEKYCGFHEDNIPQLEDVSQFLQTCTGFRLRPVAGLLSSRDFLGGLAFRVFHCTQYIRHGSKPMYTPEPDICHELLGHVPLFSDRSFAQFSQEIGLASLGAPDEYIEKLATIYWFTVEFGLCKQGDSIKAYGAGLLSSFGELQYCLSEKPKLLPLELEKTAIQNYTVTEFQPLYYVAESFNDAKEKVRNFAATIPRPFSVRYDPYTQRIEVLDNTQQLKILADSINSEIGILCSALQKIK


Key:
[1] = molecular target: T1, human phenylalanine hydroxylase (hPAH); experiment: Differential scanning fluorimetry (thermal denaturation); type: binding; settings: for Tm1 (regulatory domain) / Tm2 (catalytic domain): 100 μM compound in 1% DMSO; for Tm1 (regulatory domain): control 43.4 ± 0.6; for Tm2 (catalytic domain): control 53.5 ± 0.4; for ΔTm1 (regulatory domain) / ΔTm2 (catalytic domain): 100 μM compound vs 1% DMSO control, * S.D. < 0.01; for effect on thermal stability of regulatory and catalytic domains (|ΔTm| ≥ 2 °C): 100 μM compound
Description: Thermal denaturation profiles of recombinant hPAH were obtained by differential scanning fluorimetry (DSF) in a C1000 Touch thermal cycler equipped with a CFX96 optical reaction module (Bio-Rad; Hercules, CA, USA) as previously described. Briefly, DSF assays (n = 3) were performed using 100 μg/mL hPAH tetramers (final concentration of 0.45 μM of tetramer), SYPRO Orange (5000-fold commercially available stock solution; Invitrogen; Carlsbad, CA, USA) at a 2.5-x final concentration and ramping the temperature from 20 to 90 °C, at 1 °C/min. Fluorescence data were acquired using the FRET channel. Data were processed using CFX Manager Software V3.0 (Bio-Rad) and the GraphPad Prism. Temperature scan curves were fitted to a biphasic dose–response function and the Tm values were obtained from the midpoint of the first (Tm1) and second transitions (Tm2) corresponding, respectively, to the thermal denaturation of the regulatory and catalytic domains. The Tm values in the presence of 3HQ were compared to those obtained in the presence of 1% DMSO (vehicle control) and a change in the Tm was considered significant when the |ΔTm| ≥ 2 °C [22].

[2] = molecular target: T1, human phenylalanine hydroxylase (hPAH); experiment: hPAH enzymatic activity assay (NA, 3HQ-A and Phe/3HQ-A conditions); type: biochemical; settings: 100 μM compound; for hPAH activity vs respective control: all three conditions (NA, 3HQ-A, Phe/3HQ-A); for fold activation by L-Phe (Phe/3HQ-A vs. 3HQ-A): 100 μM L-Phe
Description: The hPAH activity was measured essentially as previously described. Briefly, the enzymatic reaction was performed in a 200 μL final volume, containing 250 mM Na-HEPES, pH 7, 0.1 mg/mL catalase (Sigma-Aldrich; St. Louis, MO, USA), 5 μg (final concentration of 0.112 μM of tetramer) of recombinant hPAH tetramers and 100 μM (NH4)2Fe(II)SO4. Using 100 μM L-Phe and 100 μM of tested compound, three experimental conditions were used to study the compounds’ modulatory effect, namely: non activated (NA), 3HQ-activated (3HQ-A) and substrate/3HQ-activated (Phe/3HQ-A) (Supplementary Figure S3). The reaction was started by addition of 75 μM BH4 (Schircks Laboratories; Bauma, Switzerland) prepared in 5 mM ascorbic acid. In the NA assay, the L-Phe substrate and tested compounds were added together with 75 µM BH4 at the start of the hydroxylation reaction. In the 3HQ-A condition, hPAH was pre-incubated with the tested compound for 4 min at 25 °C and the reaction was started by the addition of BH4 together with L-Phe. In the Phe/3HQ-A condition, hPAH was pre-incubated simultaneously with L-Phe and the tested compound (4 min, 25 °C). Appropriate control reactions were performed where the compounds were omitted and 1% DMSO was used. Kinetic parameters were determined using variable concentrations of L-Phe (25 to 2500 μM) and fixed concentrations of BH4 (75 μM) and tested compound (100 μM). After a 1-min incubation, the reaction was stopped, and the amount of L-Tyr produced was quantified by HPLC as previously described. The specific hPAH enzymatic activity is expressed as nmol of L-Tyr produced during 1 min per mg of protein (nmol L-Tyr.min^−1.mg^−1). The steady-state kinetic data were analyzed by nonlinear regression analysis using GraphPad Prism (La Jolla, CA, USA). Data was fitted to the modified Hill equation accounting for cooperative substrate binding as well as substrate inhibition (Equation (1)), to the modified Michaelis–Menten equation which accounts for substrate inhibition (Equation (2)) and to the non-modified Michaelis–Menten equation:v = (Vmax + Vi ([S]^x/Ki^x))/(1 + (K^h/[S]^h) + ([S]^x/Ki^x))(1) v = (Vmax [S])/(Km + [S](1 + [S]/Ki))(2)

[3] = molecular target: hPAH; set-up: method as in PMID 9843368; settings: ref [36]; read-out: KD (high affinity binding to hPAH); cited from earlier work
[4] = molecular target: the molecule itself; experiment: SEC; HiLoad Superdex 200 HR column (1.6 x 60 cm), 20 mM Na-HEPES, 200 mM NaCl, pH 7.0, 0.7 mL/min, 4 °C; preparative isolation of the oligomeric form after affinity purification

Molecule	Tm1 (regulatory domain) [1] [°C]	Tm2 (catalytic domain) [1] [°C]	ΔTm1 (regulatory domain) [1]	ΔTm2 (catalytic domain) [1]	fold enzyme activation by compound (3HQ-A vs. NA) [2]	hPAH activity vs respective control [2]	fold activation by L-Phe (Phe/3HQ-A vs. 3HQ-A) [2]	remaining activity at 100 µM ([2]; NA (non-activated) condition, read-out: hPAH residual activity vs control) [%]	effect on thermal stability of regulatory and catalytic domains (|ΔTm| ≥ 2 °C) [1]	Kd [3] [µM]	stoichiometry N [4]
O=C(NCc1ccccc1)c1c(O)c(=O)[nH]c2ccc(OC(F)(F)F)cc12 [Compound 6]	42.5 ± 0.2	53.0 ± 0.1	-0.9 ± 0.01 °C	-0.5 ± 0.01 °C							
O=C(Nc1ccccc1)c1c(O)c(=O)[nH]c2ccc(OC(F)(F)F)cc12 [Compound 5]	38.7 ± 0.2	42.3 ± 0.2	-4.7 ± 0.02 °C	-11.2 ± 0.05 °C					destabilized the regulatory and catalytic domains		
CCOC(=O)[C@H](Cc1ccccc1)NC(=O)c1c(O)c(=O)n(Cc2ccccc2)c2ccc(OC(F)(F)F)cc12 [Compound 4]	37.8 ± 1.9	42.7 ± 0.3	-5.6 ± 0.28 °C	-10.8 ± 0.08 °C		high decreases in enzyme activity			destabilized the regulatory and catalytic domains		
NCCc1ccc(O)c(O)c1 [dopamine]										< 1	
CCOC(=O)[C@H](Cc1ccccc1)NC(=O)c1c(O)c(=O)[nH]c2ccc(Cl)cc12 [Compound 2]	35.6 ± 0.2	43.0 ± 0.4	-7.8 ± 0.04 °C	-10.5 ± 0.11 °C		high decreases in enzyme activity			destabilized the regulatory and catalytic domains		
CCOC(=O)[C@H](Cc1ccccc1)NC(=O)c1c(O)c(=O)[nH]c2ccccc12 [Compound 1]	39.4 ± 1.0	55.9 ± 0.2	-3.9 ± 0.10 °C	+2.4 ± 0.01 °C		high decreases in enzyme activity					
CNC[C@H](O)c1ccc(O)c(O)c1 [adrenaline]										< 1	
COC(=O)[C@H](CC(C)C)NC(=O)c1c(O)c(=O)[nH]c2ccc(OC(F)(F)F)cc12 [Compound 10]	43.1 ± 0.5	53.4 ± 0.2	-0.3 ± 0.01 °C		0.9 fold		1.4 fold	68			
CN(Cc1ccccc1)C(=O)c1c(O)c(=O)[nH]c2ccc(OC(F)(F)F)cc12 [Compound 7]	43.3 ± 0.1	53.7 ± 0.1		+0.2 ± 0.01 °C							
NC[C@H](O)c1ccc(O)c(O)c1 [noradrenaline]										< 1	
Recombinant full-length wild-type human phenylalanine hydroxylase (enzyme, UniProt P00439 1-452, looked up, human phenylalanine hydroxylase (hPAH; EC 1.14.16.1), full-length wild type, expressed in fusion with a hexa-histidyl peptide; It gives a subunit mass of 55 kDa and an expected tetramer mass of 223 kDa; Non-heme iron sits in the catalytic site; also called hPAH; PAH; source: E. coli Top10, purified (IMAC on Ni-NTA agarose, then SEC to isolate tetramers)) MSTAVLENPGLGRKLSDFGQETSYIEDNCNQNGAISLIFSLKEEVGALAKVLRLFEENDVNLTHIESRPSRLKKDEYEFFTHLDKRSLPALTNIIKILRHDIGATVHELSRDKKKDTVPWFPRTIQELDRFANQILSYGAELDADHPGFKDPVYRARRKQFADIAYNYRHGQPIPRVEYMEEEKKTWGTVFKTLKSLYKTHACYEYNHIFPLLEKYCGFHEDNIPQLEDVSQFLQTCTGFRLRPVAGLLSSRDFLGGLAFRVFHCTQYIRHGSKPMYTPEPDICHELLGHVPLFSDRSFAQFSQEIGLASLGAPDEYIEKLATIYWFTVEFGLCKQGDSIKAYGAGLLSSFGELQYCLSEKPKLLPLELEKTAIQNYTVTEFQPLYYVAESFNDAKEKVRNFAATIPRPFSVRYDPYTQRIEVLDNTQQLKILADSINSEIGILCSALQKIK											4

Further lines, with some results ahead:

Tm1 (regulatory domain) [1] [°C]	Tm2 (catalytic domain) [1] [°C]	ΔTm1 (regulatory domain) [1]	ΔTm2 (catalytic domain) [1]	fold enzyme activation by compound (3HQ-A vs. NA) [2]	hPAH activity vs respective control [2]	fold activation by L-Phe (Phe/3HQ-A vs. 3HQ-A) [2]	remaining activity at 100 µM ([2]; NA (non-activated) condition, read-out: hPAH residual activity vs control) [%]	Molecule	effect on thermal stability of regulatory and catalytic domains (|ΔTm| ≥ 2 °C) [1]	Kd [3] [µM]	stoichiometry N [4]
44.6 ± 0.4	53.5 ± 0.1	+1.2 ± 0.01 °C	+0.1 ± 0.01 °C	decreased enzyme activity				CCOC(=O)CNC(=O)c1c(O)c(=O)n(Cc2ccccc2)c2ccccc12 [Compound 13]			
33.0 ± 0.3	35.5 ± 0.1	-10.4 ± 0.09 °C						CC(CCc1ccccc1)OC(=O)c1c(O)c(=O)[nH]c2ccc(OC(F)(F)F)cc12 (stereo not shown) [Compound 19]	destabilized the regulatory and catalytic domains		
44.8 ± 0.1	53.5 ± 0.1	+1.4 ± 0.01 °C	+0.1 ± 0.01 °C			did not allow substrate activation		O=C(NCc1ccccc1)c1c(O)c(=O)n(Cc2ccccc2)c2ccccc12 [Compound 14]			
44.2 ± 0.1	53.8 ± 0.1	+0.8± 0.01 °C	+0.31± 0.01 °C					O=C(c1ccccc1)c1c(O)c(=O)[nH]c2ccc(OC(F)(F)F)cc12 [Compound 20]			
44.5 ± 0.8	53.3 ± 0.3	+1.1 ± 0.02 °C	-0.2 ± 0.01 °C					O=C(c1c(O)c(=O)[nH]c2ccc(OC(F)(F)F)cc12)N1CCCC1 [Compound 15]			
40.0 ± 1.0	44.0 ± 1.4		-9.6 ± 0.31 °C					CC(OC(=O)c1c(O)c(=O)[nH]c2ccc(OC(F)(F)F)cc12)c1ccccc1 (stereo not shown) [Compound 18]	destabilized the regulatory and catalytic domains		
44.6 ± 0.2	53.7 ± 0.2	+1.2 ± 0.01 °C	+0.2 ± 0.01 °C					CC(C)(C)OC(=O)c1c(O)c(=O)[nH]c2ccc(OC(F)(F)F)cc12 [Compound 17]			
45.0 ± 1.9	53.2 ± 0.8	+1.7 ± 0.07 °C	-0.3 ± 0.01 °C					O=C(c1c(O)c(=O)[nH]c2ccc(OC(F)(F)F)cc12)N1CCCCC1 [Compound 16]			
43.8 ± 0.1	53.1 ± 0.1	0.4 ± 0.01 °C	-0.4 ± 0.01 °C	0.6 fold		allowing substrate activation		O=C(CNC(=O)c1c(O)c(=O)[nH]c2ccc(OC(F)(F)F)cc12)OCc1ccccc1 [Compound 12]			
